Reference: patent publication US6630501B1, “Phosphinic pseudo-peptides that may be used as matrix zinc metalloprotease inhibitors” (Commissariat a l'energie Atomique, priority 1999, dated 2003)

How the values were obtained:
[1] = biological target: T1, MMP-11 (stromelysin-3, mST3) (Mus musculus, UniProt Q02853); assay: Ki determination with fluorogenic synthetic substrates, recombinant MMP-11; format: biochemical, murine; conditions: for Ki: Tris/50 mM HCl buffer, pH 6.8, 10 mM CaCl2, 25° C., read-out: affinity constant Ki, MMP-11 mST3
T1 construct: made in house; host or cells: E. coli
T1 sequence (Q02853 102-492): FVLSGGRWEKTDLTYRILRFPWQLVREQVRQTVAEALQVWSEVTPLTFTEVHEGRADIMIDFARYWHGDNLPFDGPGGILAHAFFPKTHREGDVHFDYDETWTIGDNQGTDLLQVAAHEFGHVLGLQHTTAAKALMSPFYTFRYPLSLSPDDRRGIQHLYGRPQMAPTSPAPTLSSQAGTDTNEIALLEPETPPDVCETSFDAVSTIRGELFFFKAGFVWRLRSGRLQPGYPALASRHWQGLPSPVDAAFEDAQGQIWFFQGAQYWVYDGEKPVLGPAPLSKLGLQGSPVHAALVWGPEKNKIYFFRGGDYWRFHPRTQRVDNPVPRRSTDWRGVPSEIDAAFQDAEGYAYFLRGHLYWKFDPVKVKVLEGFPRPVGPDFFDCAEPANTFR
Description: (§1) The MMPs used were produced in recombinant form, in an E. coli expression system, and then purified using different types of chromatographies. Apart from stromelysin-3 (MMP-11), the MMPs produces correspond to human sequences. The Stromelysin-3 used in this study corresponds to the murine form.
(§2) The activity of each MMP was determined using two fluorogenic synthetic substrates. The cutoff of said substrates, which generates a fluorescent signal proportional to the quantity of split substrate, enables a precise determination of the kinetic parameters. The affinity constants Ki were calculated using the equation of Horowitz et al, Proc. Natl. Acad. Sci. USA, 1987, 84, p. 6654-6658 [14], accounting for the dependency of the percentage of inhibition measured experimentally according to the concentration of inhibitor, as a function of the enzyme and substrate concentration.
(§3) The experiments for conducted in a Tris/50 mM HCl buffer, pH 6.8, 10 mM CaCl2, 25° C.

MMP-14 (MT1-MMP) = biological target: T2, MMP-14 (MT1-MMP) (Homo sapiens, UniProt P50281); assay: Ki determination with fluorogenic synthetic substrates, recombinant MMP-14; format: biochemical; conditions: Tris/50 mM HCl buffer, pH 6.8, 10 mM CaCl2, 25° C.; read-out: affinity constant Ki, MMP-14 MT1-MMP
T2 construct: made in house; host or cells: E. coli
Description: as §1, §2, §3

MMP-9 (Gel-B) = biological target: T3, MMP-9 (Gel-B) (Homo sapiens, UniProt P14780); assay: Ki determination with fluorogenic synthetic substrates, recombinant MMP-9; format: biochemical; conditions: for Ki: Tris/50 mM HCl buffer, pH 6.8, 10 mM CaCl2, 25° C., read-out: affinity constant Ki, MMP-9 Gel-B
T3 construct: made in house; host or cells: E. coli
Description: as §1, §2, §3

MMP-8 (HNC) = biological target: T4, MMP-8 (HNC) (Homo sapiens, UniProt P22894); assay: Ki determination with fluorogenic synthetic substrates, recombinant MMP-8; format: biochemical; conditions: for Ki: Tris/50 mM HCl buffer, pH 6.8, 10 mM CaCl2, 25° C., read-out: affinity constant Ki, MMP-8 HNC
T4 construct: made in house; host or cells: E. coli
Description: as §1, §2, §3

MMP-2 (Gel-A) = biological target: T5, MMP-2 (Gel-A) (Homo sapiens, UniProt P08253); assay: Ki determination with fluorogenic synthetic substrates, recombinant MMP-2; format: biochemical; conditions: for Ki: Tris/50 mM HCl buffer, pH 6.8, 10 mM CaCl2, 25° C., read-out: affinity constant Ki, MMP-2 Gel-A
T5 construct: made in house; host or cells: E. coli
T5 sequence (P08253 110-660): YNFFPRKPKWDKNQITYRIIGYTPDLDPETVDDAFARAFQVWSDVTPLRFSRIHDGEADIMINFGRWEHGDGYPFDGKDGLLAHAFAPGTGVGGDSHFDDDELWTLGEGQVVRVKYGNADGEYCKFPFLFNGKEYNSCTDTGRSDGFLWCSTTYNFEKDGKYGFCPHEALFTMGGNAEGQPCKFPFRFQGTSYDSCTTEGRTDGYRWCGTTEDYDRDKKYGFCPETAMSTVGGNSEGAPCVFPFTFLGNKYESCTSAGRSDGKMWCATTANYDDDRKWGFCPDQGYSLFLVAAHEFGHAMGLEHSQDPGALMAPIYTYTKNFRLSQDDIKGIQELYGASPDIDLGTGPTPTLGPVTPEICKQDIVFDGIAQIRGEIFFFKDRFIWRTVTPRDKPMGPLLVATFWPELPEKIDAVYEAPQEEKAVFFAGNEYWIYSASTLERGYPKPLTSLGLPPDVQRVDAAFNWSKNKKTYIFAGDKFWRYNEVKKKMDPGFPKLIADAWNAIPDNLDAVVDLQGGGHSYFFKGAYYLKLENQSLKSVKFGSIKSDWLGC
Description: as §1, §2, §3

MMP-7 (Matrilysin) = biological target: T6, MMP-7 (Matrilysin) (Homo sapiens, UniProt P09237); assay: Ki determination with fluorogenic synthetic substrates, recombinant MMP-7; format: biochemical; conditions: for inhibition at 1 µM: @ 1 μM inhibitor, read-out: percentage of inhibition, MMP-7; for Ki: Tris/50 mM HCl buffer, pH 6.8, 10 mM CaCl2, 25° C., read-out: affinity constant Ki, MMP-7 Matrilysin
T6 construct: made in house; host or cells: E. coli
T6 sequence (P09237 95-267): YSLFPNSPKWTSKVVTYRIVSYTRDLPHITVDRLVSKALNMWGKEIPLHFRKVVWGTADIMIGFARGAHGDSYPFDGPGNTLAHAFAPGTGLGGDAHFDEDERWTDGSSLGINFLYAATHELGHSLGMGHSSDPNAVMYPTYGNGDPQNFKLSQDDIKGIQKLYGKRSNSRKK
Description: as §1, §2, §3

MMP-1 (HFC) = biological target: T7, MMP-1 (HFC) (Homo sapiens, UniProt P03956); assay: Ki determination with fluorogenic synthetic substrates, recombinant MMP-1; format: biochemical; conditions: for percentage of inhibition, MMP-1: @ 2 mM inhibitor; for inhibition at 1 µM: @ 1 μM inhibitor, read-out: percentage of inhibition, MMP-1
T7 construct: made in house; host or cells: E. coli
T7 sequence (P03956 100-469): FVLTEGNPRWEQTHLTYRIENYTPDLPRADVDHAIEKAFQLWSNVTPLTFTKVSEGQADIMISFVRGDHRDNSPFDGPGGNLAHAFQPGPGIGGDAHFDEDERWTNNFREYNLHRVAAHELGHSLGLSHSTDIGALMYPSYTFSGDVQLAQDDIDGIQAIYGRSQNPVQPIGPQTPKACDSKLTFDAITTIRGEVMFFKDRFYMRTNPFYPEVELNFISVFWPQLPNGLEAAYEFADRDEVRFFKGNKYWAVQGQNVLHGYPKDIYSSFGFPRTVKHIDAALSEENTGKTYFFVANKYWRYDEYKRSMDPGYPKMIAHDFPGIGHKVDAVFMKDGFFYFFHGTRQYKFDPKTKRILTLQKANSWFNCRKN
Description: as §1, §2, §3

T4 sequence (P22894 101-467): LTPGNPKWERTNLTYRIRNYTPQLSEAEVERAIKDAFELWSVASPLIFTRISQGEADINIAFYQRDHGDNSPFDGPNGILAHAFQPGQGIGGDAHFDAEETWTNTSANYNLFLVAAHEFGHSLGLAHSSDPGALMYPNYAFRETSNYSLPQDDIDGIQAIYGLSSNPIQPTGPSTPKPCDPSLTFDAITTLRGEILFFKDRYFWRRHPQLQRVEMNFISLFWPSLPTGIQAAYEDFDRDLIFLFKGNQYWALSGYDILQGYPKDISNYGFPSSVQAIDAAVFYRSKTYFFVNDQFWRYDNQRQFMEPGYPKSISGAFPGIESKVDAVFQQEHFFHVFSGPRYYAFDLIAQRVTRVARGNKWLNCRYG
T3 sequence (P14780 94-707): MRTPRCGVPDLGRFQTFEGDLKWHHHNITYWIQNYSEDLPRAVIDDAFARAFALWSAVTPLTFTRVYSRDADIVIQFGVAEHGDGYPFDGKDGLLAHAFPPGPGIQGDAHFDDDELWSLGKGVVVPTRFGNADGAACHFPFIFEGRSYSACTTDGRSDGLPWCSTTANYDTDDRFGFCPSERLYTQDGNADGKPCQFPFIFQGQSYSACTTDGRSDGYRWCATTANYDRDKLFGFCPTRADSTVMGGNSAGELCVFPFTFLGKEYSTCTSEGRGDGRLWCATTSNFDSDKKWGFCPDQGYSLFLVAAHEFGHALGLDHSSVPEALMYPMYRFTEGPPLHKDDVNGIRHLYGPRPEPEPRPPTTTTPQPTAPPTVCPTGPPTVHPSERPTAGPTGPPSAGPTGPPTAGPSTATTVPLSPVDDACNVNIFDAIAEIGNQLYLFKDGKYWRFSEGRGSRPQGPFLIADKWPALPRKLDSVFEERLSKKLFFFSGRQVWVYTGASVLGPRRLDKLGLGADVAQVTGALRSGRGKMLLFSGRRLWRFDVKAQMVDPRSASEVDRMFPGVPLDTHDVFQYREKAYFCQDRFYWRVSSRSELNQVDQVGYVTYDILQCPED

Row | SMILES | Ki [1] | Ki (MMP-14 (MT1-MMP)) | Ki (MMP-9 (Gel-B)) | Ki (MMP-8 (HNC)) | Ki (MMP-2 (Gel-A)) | percentage of inhibition, MMP-7 (MMP-7 (Matrilysin); @ 20 mM inhibitor, listed as S I) | percentage of inhibition, MMP-1 (MMP-1 (HFC); listed as S I) | inhibition at 1 µM (MMP-7 (Matrilysin)) | inhibition at 1 µM (MMP-1 (HFC)) | percentage of inhibition, MMP-7 (MMP-7 (Matrilysin); @ 50 mM inhibitor) | percentage of inhibition, MMP-1 (MMP-1 (HFC)) | Ki (MMP-7 (Matrilysin)) | inhibitory power on MMP-11, in words [1] | inhibitory power on MMP-9, in words (MMP-9 (Gel-B)) | inhibitory power on MMP-8, in words (MMP-8 (HNC)) | inhibitory power on MMP-2, in words (MMP-2 (Gel-A)) | percentage of inhibition, MMP-7 (MMP-7 (Matrilysin); @ 20 mM inhibitor, listed as S II) | percentage of inhibition, MMP-1 (MMP-1 (HFC); listed as S II)
1 | NC(=O)C(Cc1c[nH]c2ccccc12)NC(=O)C(CCCc1ccccc1)CP(=O)(O)C(Cc1ccccc1)NC(=O)OCc1ccccc1 (single isomer, unassigned) [Compound 15 S I] | 5 nM | 135 nM | 33 nM | 16 nM | 45 nM | 59% @ 20 mM | 17% @ 2 mM | – | – | – | – | – | – | – | – | – | – | –
2 | NC(=O)C(Cc1c[nH]c2ccccc12)NC(=O)C(CCCc1ccccc1)CP(=O)(O)C(Cc1ccccc1)NC(=O)COCc1ccccc1 (stereo not shown) [Compound 26] | 5 nM | 40 nM | 10 nM | 2.5 nM | 8 nM | – | – | 33% | 28% | – | – | – | – | – | – | – | – | –
3 | CC(C)CC(NC(=O)OCc1ccccc1)C(=O)NC(Cc1ccccc1)P(=O)(O)CC(CCCc1ccccc1)C(=O)NC(Cc1c[nH]c2ccccc12)C(N)=O (stereo not shown) [Compound 35] | 6 nM | 53 nM | 22 nM | 7 nM | 40 nM | – | – | 32% | 20% | – | – | – | – | – | – | – | – | –
4 | NC(=O)C(Cc1c[nH]c2ccccc12)NC(=O)C(CCCCc1ccccc1)CP(=O)(O)C(Cc1ccccc1)NC(=O)OCc1ccccc1 (stereo not shown) [Compound 16] | 33 nM | 580 nM | 70 nM | 4.3 nM | 145 nM | – | – | – | – | 65% @ 50 mM | 5% @ 2 mM | – | – | – | – | – | – | –
5 | NC(=O)C(Cc1c[nH]c2ccccc12)NC(=O)C(CCCc1ccccc1)CP(=O)(O)C(Cc1ccccc1)NC(=O)c1cc2cc(Cl)cc(Cl)c2oc1=O (stereo not shown) [Compound 33] | 5 nM | 217 nM | 110 nM | 17 nM | 100 nM | – | – | 37% | 47% | – | – | – | – | – | – | – | – | –
6 | NC(=O)C(Cc1c[nH]c2ccccc12)NC(=O)C(CCCc1ccccc1)CP(=O)(O)C(Cc1ccccc1)NC(=O)CNc1cc(Cl)ccc1O (stereo not shown) [Compound 29] | 10 nM | 63 nM | 34 nM | 7.5 nM | 30 nM | – | – | 48% | 55% | – | – | – | – | – | – | – | – | –
7 | CC(=O)NC(Cc1ccccc1)P(=O)(O)CC(CCCc1ccccc1)C(=O)NC(Cc1c[nH]c2ccccc12)C(N)=O (stereo not shown) [Compound 25] | 20 nM | 90 nM | 35 nM | 3.5 nM | 26 nM | – | – | 16% | 29% | – | – | – | – | – | – | – | – | –
8 | NC(=O)C(Cc1c[nH]c2ccccc12)NC(=O)C(CCCc1ccccc1)CP(=O)(O)C(Cc1ccccc1)NC(=O)c1ccc2ccccc2n1 (stereo not shown) [Compound 32] | 4.2 nM | 60 nM | 13 nM | 5 nM | 19 nM | – | – | – | 78% | – | – | 370 nM | – | – | – | – | – | –
9 | COc1ccc(CSCC(CP(=O)(O)C(Cc2ccccc2)NC(=O)OCc2ccccc2)C(=O)NC(Cc2c[nH]c3ccccc23)C(N)=O)cc1 (stereo not shown) [Compound 18] | 2 nM | 22 nM | 3 nM | 0.7 nM | 6 nM | – | – | – | – | 84% @ 50 mM | 13% @ 2 mM | – | very powerful inhibitor | very powerful inhibitor | very powerful inhibitor | very powerful inhibitor | – | –
10 | CC(C)CC(CP(=O)(O)C(Cc1ccccc1)NC(=O)OCc1ccccc1)C(=O)NC(Cc1c[nH]c2ccccc12)C(N)=O (stereo not shown) [Compound 13] | 22 nM | 192 nM | 65 nM | 40 nM | 202 nM | – | – | – | – | – | 45% @ 2 mM | 210 nM | – | – | – | – | – | –
11 | NC(=O)C(Cc1c[nH]c2ccccc12)NC(=O)C(CCCc1ccccc1)CP(=O)(O)C(Cc1ccccc1)NC(=O)OCc1ccccc1 (single isomer, unassigned) [Compound 15 S II] | 50 nM | 2290 nM | 250 nM | 460 nM | 365 nM | – | – | – | – | – | – | – | – | – | – | – | 29% @ 20 mM | 6% @ 2 mM
12 | NC(=O)C(Cc1c[nH]c2ccccc12)NC(=O)C(CCCc1ccccc1)CP(=O)(O)C(Cc1ccccc1)NC(=O)CNc1ccccc1 (stereo not shown) [Compound 27] | 15 nM | 73 nM | 6 nM | 4.5 nM | 17 nM | – | – | 16% | 33% | – | – | – | – | – | – | – | – | –
